According to publication PMC6637216 (BioImpacts : BI, 2019):
“And” between values parts separate entries of the source, which are not always exact repeats. Identical values can stand only once.

Columns and labels:
[1] = biological target: T1, AChE from Electrophorus electricus (electric eel) (Electrophorus electricus, UniProt O42275); assay: Ellman AChE inhibition and kinetics in HSA matrix; type: biochemical; details: for ΔrIC50, relative decrease in inhibition potency in HSA versus buffer: (IC50(HSA)-IC50(Buffer))/IC50(Buffer)x100; for Vmax / α / α': HSA medium (in parentheses); for nH (Hill coefficient): HSA medium, values in parentheses
[2] = biological target: AChE (Electrophorus electricus, UniProt O42275); assay: ThT displacement from AChE; type: binding; details: quenching of ThT-AChE fluorescence, 0.1 M phosphate buffer pH 8.0
[3] = biological target: T1, AChE from Electrophorus electricus (electric eel); assay: Ellman colorimetric AChE inhibition and kinetics in aqueous phosphate buffer; type: biochemical; details: for nH (Hill coefficient) / Vmax / α / α': aqueous buffer

T1 sequence (O42275 24-633): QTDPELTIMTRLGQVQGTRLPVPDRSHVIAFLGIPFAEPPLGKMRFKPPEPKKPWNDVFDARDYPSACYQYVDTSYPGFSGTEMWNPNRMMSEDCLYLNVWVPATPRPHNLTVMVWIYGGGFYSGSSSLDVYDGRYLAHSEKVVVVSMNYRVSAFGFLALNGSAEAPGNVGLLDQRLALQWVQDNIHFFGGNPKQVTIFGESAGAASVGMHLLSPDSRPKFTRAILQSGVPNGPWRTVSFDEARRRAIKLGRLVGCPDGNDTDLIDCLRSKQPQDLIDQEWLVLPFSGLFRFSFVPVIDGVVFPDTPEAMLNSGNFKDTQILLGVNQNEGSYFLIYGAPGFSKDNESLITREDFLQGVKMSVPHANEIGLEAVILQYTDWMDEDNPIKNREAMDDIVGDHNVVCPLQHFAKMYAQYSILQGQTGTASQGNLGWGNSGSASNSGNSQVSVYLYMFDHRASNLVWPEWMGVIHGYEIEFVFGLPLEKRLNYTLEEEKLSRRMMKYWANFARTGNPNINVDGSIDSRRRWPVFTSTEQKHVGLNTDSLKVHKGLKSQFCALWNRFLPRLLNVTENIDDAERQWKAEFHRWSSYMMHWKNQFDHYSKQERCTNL
AChE, sequence (O42275 24-633): as above

Row | SMILES | IC50 [1] [nM] | ΔrIC50, relative decrease in inhibition potency in HSA versus buffer [1] | Vmax ([1]; inhibitor 5 nM) [nM/s] | α ([1]; inhibitor 5 nM) | α' ([1]; inhibitor 5 nM) | Vmax ([1]; inhibitor 10 nM) [nM/s] | α ([1]; inhibitor 10 nM) | α' ([1]; inhibitor 10 nM) | nH (Hill coefficient) [1] | KSV (Stern-Volmer constant) [2] [M⁻¹] | IC50 [3] [nM] | nH (Hill coefficient) [3] | Vmax ([3]; inhibitor 5 nM) [nM/s] | α ([3]; inhibitor 5 nM) | α' ([3]; inhibitor 5 nM) | Vmax ([3]; inhibitor 10 nM) [nM/s] | α ([3]; inhibitor 10 nM) | α' ([3]; inhibitor 10 nM)
1 | Cc1cc(=O)c2ccc(N)cc2o1 [AMC, 7-amino-2-methylchromone] | 115 | ~ 5% and 5% | 711 ± 47 | 1.2 (1.2) | 1.2 (1.2) | 557 ± 39 | 1.5 | 1.4 (1.4) | 1.52±0.1 | 230000 | 103 ± 11.9 | 1.45 ± 0.1 | 670 ± 26 | 1.2 (1.2) | 1.2 (1.2) | 560 ± 39 | 1.4 | 1.4 (1.4)
2 | N#Cc1coc2ccccc2c1=O [CyC, 3-cyanochromone] | 113 | ~ 32% and 32% | 730 ± 17 | 1.1 | 1.1 | 671 ± 30 | 1.2 | 1.2 | 1.89±0.17 | 370000 | 85.1 ± 6.7 | 1.51 ± 0.1 | 631 ± 21 | 1.3 | 1.3 | 538 ± 31 | 1.5 | 1.5
